Data reported in ChEMBL document CHEMBL1201862, “PubChem BioAssay data set” (2004).
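Assay format: 96-well plates, 48-hour exposure. GI50 marks 50% less growth.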 Active and inactive are the calls of the source. No stated cut-off is given here; in the data, active = GI50 up to about 1.1 µM and inactive = higher.

Assays:
Experiment in all cases: inhibition of tumour cell growth, NCI panel, 48 h
COLO 205 = test system: COLO 205
EKVX = test system: EKVX
HOP-62 = test system: HOP-62
HOP-92 = test system: HOP-92
HT-29 = test system: HT-29
IGROV-1 = test system: IGROV-1
M14 = test system: M14
MDA-MB-435 = test system: MDA-MB-435
MDA-N = test system: MDA-N
NCI-H23 = test system: NCI-H23
NCI-H460 = test system: NCI-H460
NCI-H522 = test system: NCI-H522
OVCAR-3 = test system: OVCAR-3
PC-3 = test system: PC-3
SF-268 = test system: SF-268
SK-MEL-5 = test system: SK-MEL-5
SNB-19 = test system: SNB-19
TK-10 = test system: TK-10
UACC-62 = test system: UACC-62
UO-31 = test system: UO-31

Compound | GI50 (COLO 205) | GI50 (EKVX) | GI50 (HOP-62) | GI50 (HOP-92) | GI50 (HT-29) | GI50 (IGROV-1) | GI50 (M14) | GI50 (MDA-MB-435) | GI50 (MDA-N) | GI50 (NCI-H23) | GI50 (NCI-H460) | GI50 (NCI-H522) | GI50 (OVCAR-3) | GI50 (PC-3) | GI50 (SF-268) | GI50 (SK-MEL-5) | GI50 (SNB-19) | GI50 (TK-10) | GI50 (UACC-62) | GI50 (UO-31)
CC(=O)/C(=N\N=C(N)N)c1ccccc1 | 35.1 µM (inactive) | 68.1 µM (inactive) | > 100 µM (inactive) | > 100 µM (inactive) | > 100 µM (inactive) | > 100 µM (inactive) | > 100 µM (inactive) | > 100 µM (inactive) | > 100 µM (inactive) | > 100 µM (inactive) | > 100 µM (inactive) | 59.8 µM (inactive) | > 100 µM (inactive) | > 100 µM (inactive) | > 100 µM (inactive) | > 100 µM (inactive) | > 100 µM (inactive) | > 100 µM (inactive) | > 100 µM (inactive) | > 100 µM (inactive)
COC(=O)C1(Cc2ccccc2)Cc2ccc3c(c2C1=O)CCC3 (centres undefined) | 27.8 µM (inactive) | 13.1 µM (inactive) | > 74.6 µM (inactive) | 20.8 µM (inactive) | 29 µM (inactive) | > 72.9 µM (inactive) | 25.1 µM (inactive) | 24.9 µM (inactive) | 26.2 µM (inactive) | 32.2 µM (inactive) | 60.8 µM (inactive) | 20.8 µM (inactive) | > 49 µM (inactive) | 26.1 µM (inactive) | > 66.5 µM (inactive) | 18.5 µM (inactive) | 55.2 µM (inactive) | > 47.5 µM (inactive) | > 36.7 µM (inactive) | 18 µM (inactive)
O=C1NC(c2ccccc2)C1N(Cc1ccccc1)Cc1ccccc1 (centres undefined) | > 100 µM (inactive) | > 100 µM (inactive) | > 100 µM (inactive) | > 100 µM (inactive) | > 100 µM (inactive) | > 100 µM (inactive) | > 100 µM (inactive) | > 100 µM (inactive) | > 100 µM (inactive) | > 100 µM (inactive) | > 100 µM (inactive) | > 100 µM (inactive) | > 100 µM (inactive) | > 100 µM (inactive) | > 100 µM (inactive) | > 100 µM (inactive) | > 100 µM (inactive) | > 100 µM (inactive) | 93.1 µM (inactive) | > 100 µM (inactive)
COC(=O)CCC12CCC(O1)c1ccccc12 (centres undefined) | > 100 µM (inactive) | > 100 µM (inactive) | > 100 µM (inactive) | 92.5 µM (inactive) | > 100 µM (inactive) | > 100 µM (inactive) | > 100 µM (inactive) | > 100 µM (inactive) | > 100 µM (inactive) | > 100 µM (inactive) | > 100 µM (inactive) | > 100 µM (inactive) | – | > 100 µM (inactive) | – | > 100 µM (inactive) | > 100 µM (inactive) | > 100 µM (inactive) | > 100 µM (inactive) | > 100 µM (inactive)
CC(C)(C)C=C=C(C(C)(C)C)P(=O)(O)O | > 100 µM (inactive) | > 100 µM (inactive) | > 100 µM (inactive) | > 100 µM (inactive) | > 100 µM (inactive) | > 100 µM (inactive) | > 100 µM (inactive) | > 100 µM (inactive) | > 100 µM (inactive) | > 100 µM (inactive) | > 100 µM (inactive) | > 100 µM (inactive) | > 100 µM (inactive) | > 100 µM (inactive) | > 100 µM (inactive) | > 100 µM (inactive) | > 100 µM (inactive) | > 100 µM (inactive) | > 100 µM (inactive) | –
C[C@]12CC(c3ccccc3O1)C(C(N)=O)C(=O)N2 (some centres undefined) | > 100 µM (inactive) | > 100 µM (inactive) | > 100 µM (inactive) | > 100 µM (inactive) | > 100 µM (inactive) | > 100 µM (inactive) | > 100 µM (inactive) | > 100 µM (inactive) | > 100 µM (inactive) | > 100 µM (inactive) | > 100 µM (inactive) | > 100 µM (inactive) | > 100 µM (inactive) | > 100 µM (inactive) | > 100 µM (inactive) | > 100 µM (inactive) | > 100 µM (inactive) | – | > 100 µM (inactive) | –
CCCc1cc(-c2ccc(-c3cc(CCC)c(C=O)[nH]3)s2)[nH]c1C=O | 4.83 µM (inactive) | > 100 µM (inactive) | > 100 µM (inactive) | 27.5 µM (inactive) | 2.18 µM (inactive) | > 100 µM (inactive) | 7.08 µM (inactive) | 15.5 µM (inactive) | 4.34 µM (inactive) | > 37.1 µM (inactive) | 5.2 µM (inactive) | 5.45 µM (inactive) | 12.4 µM (inactive) | 26.5 µM (inactive) | > 84.7 µM (inactive) | 29.4 µM (inactive) | > 100 µM (inactive) | > 100 µM (inactive) | > 32.6 µM (inactive) | 22.6 µM (inactive)
Nc1nc(N)c(/N=N/c2ccc(C(=O)O)c(O)c2)c(N)n1 | > 100 µM (inactive) | 91.6 µM (inactive) | > 100 µM (inactive) | 92.5 µM (inactive) | > 100 µM (inactive) | > 100 µM (inactive) | > 100 µM (inactive) | > 100 µM (inactive) | > 100 µM (inactive) | > 100 µM (inactive) | > 100 µM (inactive) | 26.8 µM (inactive) | 10.4 µM (inactive) | > 100 µM (inactive) | > 100 µM (inactive) | > 100 µM (inactive) | > 100 µM (inactive) | > 100 µM (inactive) | > 100 µM (inactive) | > 100 µM (inactive)
COC(=O)c1c(O)ccc2c1c1c(n2Cc2ccccc2Cl)C(=O)c2ccccc2C1=O | 4.13 µM (inactive) | 16.9 µM (inactive) | 26 µM (inactive) | 14.8 µM (inactive) | 1.17 µM (inactive) | 13.6 µM (inactive) | 15.5 µM (inactive) | 10.7 µM (inactive) | 12.8 µM (inactive) | 13.2 µM (inactive) | 6.78 µM (inactive) | 10.9 µM (inactive) | 10 µM (inactive) | 11.5 µM (inactive) | 12.4 µM (inactive) | 12.5 µM (inactive) | 16 µM (inactive) | 16.1 µM (inactive) | 14.8 µM (inactive) | 10.9 µM (inactive)
COc1cccc(C2c3cc4c(cc3OC(N3CCCC3)C2C)OCO4)c1 (centres undefined) | 9.77 µM (inactive) | 21.3 µM (inactive) | 4.63 µM (inactive) | 2.83 µM (inactive) | 4.58 µM (inactive) | 6.32 µM (inactive) | 3.96 µM (inactive) | 2.7 µM (inactive) | 1.79 µM (inactive) | 22.8 µM (inactive) | – | 3.92 µM (inactive) | 7.48 µM (inactive) | 11 µM (inactive) | 14.7 µM (inactive) | 5.53 µM (inactive) | 11.4 µM (inactive) | 18.6 µM (inactive) | 4.66 µM (inactive) | 12.1 µM (inactive)
C[C@]12CC[C@H]3[C@@H](CCC4=C[C@@H](OC5OCC(OC6OC(CO)C(O)C(O)C6O)C(O)C5O)CC[C@@]43C=O)[C@@]1(O)CCC2C1=CC(=O)OC1 (some centres undefined) | 1.35 µM (inactive) | 0.441 µM (active) | 0.431 µM (active) | 1.11 µM (active) | 0.832 µM (active) | 0.351 µM (active) | 1.21 µM (inactive) | 0.843 µM (active) | 1.01 µM (active) | 0.195 µM (active) | 0.0982 µM (active) | 0.203 µM (active) | 0.375 µM (active) | 0.631 µM (active) | 0.36 µM (active) | 0.385 µM (active) | 3.11 µM (inactive) | 0.681 µM (active) | 1.81 µM (inactive) | 0.561 µM (active)
CC(=O)c1cc2ccccc2[n+]([O-])c1N | > 100 µM (inactive) | > 100 µM (inactive) | > 100 µM (inactive) | > 100 µM (inactive) | > 100 µM (inactive) | > 100 µM (inactive) | > 100 µM (inactive) | > 100 µM (inactive) | > 100 µM (inactive) | > 100 µM (inactive) | > 100 µM (inactive) | > 100 µM (inactive) | > 100 µM (inactive) | > 100 µM (inactive) | > 100 µM (inactive) | > 100 µM (inactive) | – | > 100 µM (inactive) | > 100 µM (inactive) | –
C/C(=C\CNc1ncnc2[nH]c(Cl)nc12)CO | > 100 µM (inactive) | > 100 µM (inactive) | > 100 µM (inactive) | > 100 µM (inactive) | > 100 µM (inactive) | > 100 µM (inactive) | > 100 µM (inactive) | > 100 µM (inactive) | > 100 µM (inactive) | > 100 µM (inactive) | > 100 µM (inactive) | > 100 µM (inactive) | > 100 µM (inactive) | > 100 µM (inactive) | > 100 µM (inactive) | > 100 µM (inactive) | > 100 µM (inactive) | > 100 µM (inactive) | – | > 100 µM (inactive)
O=C(CN1CCCC1)Nc1ccc2c(c1)C1Oc3ccccc3CC1CO2 (centres undefined) | 14 µM (inactive) | 69.3 µM (inactive) | 19.7 µM (inactive) | 16.7 µM (inactive) | > 10 µM (inactive) | 36.6 µM (inactive) | 20.1 µM (inactive) | 22.2 µM (inactive) | 31.2 µM (inactive) | 38.5 µM (inactive) | – | 32.4 µM (inactive) | 57.5 µM (inactive) | 24.8 µM (inactive) | 67 µM (inactive) | 14.6 µM (inactive) | – | 49 µM (inactive) | 17 µM (inactive) | 22.1 µM (inactive)
